According to patent publication US9434725B2, “5-azaindazole compounds and methods of use” (priority 2012, dated 2016):

Columns and labels:
PIM2 = PIM2 (Homo sapiens (Human), UniProt Q9P1W9); test: Pim kinase binding activity, Caliper LC3000 microfluidic peptide phosphorylation assay, PIM2; assay type: biochemical; settings: 10 μM ATP, 90 min, room temperature; read-out: PIM2 LC3K (KI)
Description: (§1) A fluorescent-labeled Pim-specific peptide substrate, was custom synthesized by American Peptide Company (Sunnyvale, Calif.). Reaction Buffer contained 10 mM HEPES, pH 7.2, 10 mM MgCl2, 0.01% Tween 20, 2 mM DTT. Termination Buffer contained 190 mM HEPES, pH 7.2, 0.015% Brij-35, 0.2% Coating Reagent 3 (Caliper Life Sciences, Hopkinton, Mass.), 20 mM EDTA. Separation Buffer contained 100 mM HEPES, pH 7.2, 0.015% Brij-35, 0.1% Coating Reagent 3, 1:200 Coating Reagent 8 (Caliper Life Sciences, Hopkinton, Mass.), 10 mM EDTA and 5% DMSO.
(§2) PIM reactions were carried out in a final volume of 10 μL per well in a 384-well plate. […] After 90 minutes of incubation at room temperature, the phosphorylation reaction was stopped by the addition of 10 μL Termination Buffer. The product and substrate in each independent reaction were separated on a 12-sipper microfluidic chip (Caliper Life Sciences, Hopkinton, Mass.) run on a Caliper LC3000® (Caliper Life Sciences, Hopkinton, Mass.). The separation of product and substrate was optimized by choosing voltages and pressure using Caliper's Optimizer software (Hopkinton, Mass.). […] Substrate conversion was calculated from the electropherogram using HTS Well Analyzer software (Caliper Life Sciences, Hopkinton, Mass.). Ki values for the test compound were calculated.

PIM3 = PIM3 (Homo sapiens (Human), UniProt Q86V86); test: Pim kinase binding activity, Caliper LC3000 microfluidic peptide phosphorylation assay, PIM3; assay type: biochemical; settings: 10 μM ATP, 90 min, room temperature; read-out: PIM3 LC3K (KI)
Description: as §1, §2

Sequence of PIM2 (Q9P1W9 whole entry): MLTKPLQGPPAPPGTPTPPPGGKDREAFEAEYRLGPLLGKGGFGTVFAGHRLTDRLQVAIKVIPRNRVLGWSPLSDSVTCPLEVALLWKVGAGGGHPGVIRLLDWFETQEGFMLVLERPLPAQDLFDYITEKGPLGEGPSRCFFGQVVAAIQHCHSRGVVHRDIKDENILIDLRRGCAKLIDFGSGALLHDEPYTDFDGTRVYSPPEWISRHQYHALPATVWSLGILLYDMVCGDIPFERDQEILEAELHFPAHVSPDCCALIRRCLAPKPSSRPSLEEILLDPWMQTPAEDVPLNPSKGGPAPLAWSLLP

Row | SMILES | Ki (PIM2) [nM] | Ki (PIM3) [nM]
1 | CCc1cncc(-c2cc3c(cn2)cnn3-c2ccc(C3CC3)c(N3CCC[C@H](N)C3)n2)c1 [Compound 139, (S)-1-(3-cyclopropyl-6-(6-(5-ethylpyridin-3-yl)-1H-pyrazolo[4,3-c]pyridin-1-yl)pyridin-2-yl)piperidin-3-amine] | 0.187 | 0.035
2 | CC(C)c1cncc(-c2cc3c(cn2)cnn3-c2cccc(N3CCCNCC3)n2)c1 [Compound 103, 1-(6-(1,4-diazepan-1-yl)pyridin-2-yl)-6-(5-isopropylpyridin-3-yl)-1H-pyrazolo[4,3-c]pyridine] | 2.76 | 0.065
3 | c1ccc(-n2ncc3cnc(-c4cncc(NC5CNC5)n4)cc32)nc1 [Compound 308, N-(azetidin-3-yl)-6-(1-(pyridin-2-yl)-1H-pyrazolo[4,3-c]pyridin-6-yl)pyrazin-2-amine] | 4.31 | 0.4
4 | c1cc(N2CCCNCC2)nc(-n2ncc3cnc(-c4cn[nH]c4)cc32)c1 [Compound 180, 1-(6-(1,4-Diazepan-1-yl)pyridin-2-yl)-6-(1H-pyrazol-4-yl)-1H-pyrazolo[4,3-c]pyridine] | 1.6 | 0.086
5 | CCc1cncc(-c2cc3c(cn2)cnn3-c2cccc(N3CCNCC(O)C3)n2)c1 (centres unmarked) [Compound 106, 1-(6-(6-(5-ethylpyridin-3-yl)-1H-pyrazolo[4,3-c]pyridin-1-yl)pyridin-2-yl)-1,4-diazepan-6-ol] | 7.26 | 
6 | CC(C)c1cncc(-c2cc3c(cn2)cnn3-c2cccc(N3CCC[C@H](N)C3)n2)c1 [Compound 108, (3S)-1-[6-[6-(5-isopropyl-3-pyridyl)pyrazolo[4,3-c]pyridin-1-yl]-2-pyridyl]piperidin-3-amine] | 1.93 | 0.049
7 | CCc1cncc(-c2cc3c(cn2)cnn3-c2cccc(N3CCC[C@H](N)C3)n2)n1 [Compound 156, (3S)-1-[6-[6-(6-ethylpyrazin-2-yl)pyrazolo[4,3-c]pyridin-1-yl]-2-pyridyl]piperidin-3-amine] | 0.37 | 0.014
8 | CCn1cc(-c2cc3c(cn2)cnn3-c2cccc(N3CCNCC3)n2)cn1 [Compound 101, 6-(1-ethylpyrazol-4-yl)-1-(6-piperazin-1-yl-2-pyridyl)pyrazolo[4,3-c]pyridine] | 14.6 | 0.676
9 | Cc1cc(-c2cc3c(cn2)cnn3-c2cccc(N3CCCNCC3)n2)sn1 [Compound 120, 5-[1-[6-(1 4-diazepan-1-yl)-2-pyridyl]pyrazolo[4,3-c]pyridin-6-yl]-3-methyl-isothiazole] | 4.66 | 0.168
10 | Cc1nc(-c2cc3c(cn2)cnn3-c2cccc(N3CCCNCC3)n2)cnc1N [Compound 208, 5-(1-(6-(1,4-diazepan-1-yl)pyridin-2-yl)-1H-pyrazolo[4,3-c]pyridin-6-yl)-3-methylpyrazin-2-amine] | 0.748 | 0.014
11 | CC(C)c1cncc(-c2cc3c(cn2)cnn3-c2cccc(N3CCNCC3)n2)c1 [Compound 105, 6-(5-isopropylpyridin-3-yl)-1-(6-(piperazin-1-yl)pyridin-2-yl)-1H-pyrazolo[4,3-c]pyridine] | 7.14 | 0.183
12 | Cn1cc(-c2cc3c(cn2)cnn3-c2cccc(N3CCCNCC3)n2)cn1 [Compound 224, 1-(6-(1,4-Diazepan-1-yl)pyridin-2-yl)-6-(1-methyl-1H-pyrazol-4-yl)-1H-pyrazolo[4,3-c]pyridine] | 5.01 | 0.097
13 | Cc1cncc(-c2cc3c(cn2)cnn3-c2ccc(C(F)F)c(N3CCC[C@H](N)C3)n2)n1 [Compound 227, (S)-1-(3-(difluoromethyl)-6-(6-(6-methylpyrazin-2-yl)-1H-pyrazolo[4,3-c]pyridin-1-yl)pyridin-2-yl)piperidin-3-amine] |  | 0.019
14 | CCn1cc(-c2cc3c(cn2)cnn3-c2cccc(N3CCCNCC3)n2)cn1 [Compound 125, 1-(6-(1,4-diazepan-1-yl)pyridin-2-yl)-6-(1-ethyl-1H-pyrazol-4-yl)-1H-pyrazolo[4,3-c]pyridine] | 4.27 | 
15 | FC(F)(F)Cn1cc(-c2cc3c(cn2)cnn3-c2ccnc(N3CCCNCC3)n2)cn1 [Compound 179, 1-(2-(1,4-Diazepan-1-yl)pyrimidin-4-yl)-6-(1-(2,2,2-trifluoroethyl)-1H-pyrazol-4-yl)-1H-pyrazolo-[4,3-c]pyridine] |  | 1.76

The remaining lines, values ahead:

Row | Ki (PIM2) [nM] | Ki (PIM3) [nM] | SMILES
16 | 2.27 | 0.34 | Cc1cncc(-c2cc3c(cn2)cnn3-c2cccc(N3CC[C@H](N)C3)n2)n1 [Compound 167, (3S)-1-[6-[6-(6-methylpyrazin-2-yl)pyrazolo[4,3-c]pyridin-1-yl]-2-pyridyl]pyrrolidin-3-amine]
17 | 0.317 | 0.047 | Cc1cncc(-c2cc3c(cn2)cnn3-c2ccc(Cl)c(N3CCC[C@H](N)C3)n2)n1 [Compound 176, (S)-1-(3-chloro-6-(6-(6-methylpyrazin-2-yl)-1H-pyrazolo[4,3-c]pyridin-1-yl)pyridin-2-yl)piperidin-3-amine]
18 | 4.29 | 0.267 | Cc1cncc(-c2cc3c(cn2)cnn3-c2cccc(N3CCC[C@H](N)C3=O)n2)n1 [Compound 225, (3S)-3-amino-1-[6-[6-(6-methylpyrazin-2-yl)pyrazolo[4,3-c]pyridin-1-yl]-2-pyridyl]piperidin-2-one]
19 | 183 | 20.1 | Cc1cncc(-c2cc3c(cn2)cnn3-c2cccc(C(=O)N3CCC[C@H](N)C3)n2)n1 [Compound 302, (S)-(3-aminopiperidin-1-yl)(6-(6-(6-methylpyrazin-2-yl)-1H-pyrazolo[4,3-c]pyridin-1-yl)pyridin-2-yl)methanone]
20 | 2.42 | 0.076 | Cc1cncc(-c2cc3c(cn2)cnn3-c2cccc(N3CCNC(C)CC3)n2)n1 (centres unmarked) [Compound 184, 1-[6-(5-methyl-1 4-diazepan-1-yl)-2-pyridyl]-6-(6-methylpyrazin-2-yl)pyrazolo[4,3-c]pyridine]
21 |  | 0.562 | Cc1cncc(-c2cc3c(cn2)cnn3-c2cccc(N(C)C)n2)n1 [Compound 296, N,N-dimethyl-6-(6-(6-methylpyrazin-2-yl)-1H-pyrazolo[4,3-c]pyridin-1-yl)pyridin-2-amine]
22 | 3.43 | 0.235 | CNc1cccc(-n2ncc3cnc(-c4cncc(C)n4)cc32)n1 [Compound 297, N-methyl-6-(6-(6-methylpyrazin-2-yl)-1H-pyrazolo[4,3-c]pyridin-1-yl)pyridin-2-amine]
23 | 4.83 | 0.331 | Cc1cncc(-c2cc3c(cn2)cnn3-c2cccc(N3CCCC(N)C3C)n2)n1 (single isomer, unassigned) [Compound 203, 2-methyl-1-[6-[6-(6-methylpyrazin-2-yl)pyrazolo[4,3-c]pyridin-1-yl]-2-pyridyl]piperidin-3-amine]
24 | 1.06 |  | Cc1cncc(-c2cc3c(cn2)cnn3-c2cccc(N3CCCCC(N)C3)n2)n1 (centres unmarked) [Compound 187, 1-[6-[6-(6-methylpyrazin-2-yl)pyrazolo[4,3-c]pyridin-1-yl]-2-pyridyl]azepan-3-amine]
25 | 1000 |  | Cc1cncc(-c2cc3c(cn2)cnn3-c2ccc(=O)n([C@H]3CCCNC3)n2)n1 [Compound 289, (S)-6-(6-(6-methylpyrazin-2-yl)-1H-pyrazolo[4,3-c]pyridin-1-yl)-2-(piperidin-3-yl)pyridazin-3(2H)-one]
26 | 0.864 |  | Cc1cncc(-c2cc3c(cn2)cnn3-c2cccc(N3CCNC[C@@H]3C)n2)n1 [Compound 196, 1-[6-[(2S)-2-methylpiperazin-1-yl]-2-pyridyl]-6-(6-methylpyrazin-2-yl)pyrazolo[4,3-c]pyridine]
